# Tested on: production of tumor necrosis factor (TNF) by monocytes activated with bacterial lipopolysaccharide (LPS)
# Test: Lipopolysaccharide-activated monocyte TNF production assay
# Assay type: cell-based
# Conditions: Homo sapiens, adherent monocytes from PBMCs, 60 min with compound, then LPS 4 hrs, TNF in supernatants by ELISA, read-out: IC50 (concentration of test compounds causing a 50% reduction in TNF production)
# Protocol: Lipopolysaccharide-activated monocyte TNF production assay
# Test compounds were evaluated in vitro for the ability to inhibit the production of tumor necrosis factor (TNF) by monocytes activated with bacterial lipopolysaccharide (LPS). Fresh residual source leukocytes (a byproduct of plateletpheresis) were obtained from a local blood bank, and peripheral blood mononuclear cells (PBMCs) were isolated by density gradient centrifugation on Ficol-Paque Plus (Pharmacia). PBMCs were suspended at 2×10^6/ml in DMEM supplemented to contain 2% FCS, 10 mM, 0.3 mg/ml […], 100 U/ml penicillin G and […] streptomycin sulfate (complete media). Cells were plated into Falcon flat bottom, 96 well culture plates (200 μl/well) and cultured overnight at 37° C. and 6% CO2. Non-adherent cells were removed by washing with 200 μl/well of fresh medium. Wells containing adherent cells (˜70% monocytes) were replenished with 100 μl of fresh medium.
# Preparation of test compound stock solutions
# Test compounds were dissolved in DMSO. Compound stock solutions were prepared to an initial concentration of […]. Stocks were diluted initially to 20-200 μM in complete media. Nine two-fold serial dilutions of each compound were then prepared in complete medium.
# Treatment of cells with test compounds and activation of TNF production with lipopolysaccharide
# One hundred microliters of each test compound dilution were added to microtiter wells containing adherent monocytes and 100 μl complete medium. Monocytes were cultured with test compounds for 60 min at which time 25 μl of complete medium containing 30 ng/ml lipopolysaccharide from E. coli K532 were added to each well. Cells were cultured an additional 4 hrs. Culture supernatants were then removed and TNF presence in the supernatants was quantified using an ELISA.
# Flat bottom, 96 well Corning High Binding ELISA plates were coated overnight (4° C.) with 150 μL/well of 3 μg/ml murine anti-human TNF-α MAb (R&D Systems #MAB210). Wells were then blocked for 1 hr at room temperature with 200 μL/well of CaCl2-free ELISA buffer supplemented to contain 20 mg/ml BSA (standard ELISA buffer: […], 150 mM NaCl, 2 mM CaCl2, 0.15 mM thimerosal, pH 7.4). Plates were washed and replenished with 100 μl of test supernatants (diluted 1:3) or standards. Standards consisted of eleven 1.5-fold serial dilutions from a stock of 1 ng/ml recombinant human TNF (R&D Systems). Plates were incubated at room temperature for 1 hr on orbital shaker (300 rpm), washed and replenished with 100 μl/well of 0.5 μg/ml goat anti-human TNF-α (R&D systems #AB-210-NA) biotinylated at a 4:1 ratio. Plates were incubated for 40 min, washed and replenished with 100 μl/well of alkaline phosphatase-conjugated streptavidin (Jackson ImmunoResearch #016-050-084) at 0.02 μg/ml. Plates were incubated 30 min, washed and replenished with 200 μl/well of 1 mg/ml of p-nitrophenyl phosphate. After 30 min, plates were read at 405 nm on a Vmax plate reader.
# Standard curve data were fit to a second order polynomial and unknown TNF-α concentrations determined from their OD by solving this equation for concentration. TNF concentrations were then plotted vs. test compound concentration using a second order polynomial. This equation was then used to calculate the concentration of test compounds causing a 50% reduction in TNF production.
row,SMILES,IC50 [µM]
1,"Cc1cc(F)ccc1Oc1ccc(NC(=O)c2c(C)cccc2C)cn1 [2-(2-methyl-4-fluorophenoxy)-5-(2,6-dimethylphenylcarbonylamino)pyridine]",< 15
2,"O=C(Nc1ccc(Oc2cccc3ccccc23)nc1)c1c(Cl)cccc1Cl [2-(1-naphthyloxy)-5-(2,6-dichlorophenylcarbonylamino) pyridine]",< 15
3,"Cc1cc(Cl)ccc1Oc1ccc(NC(=O)c2c(C)cccc2C)cn1 [2-(2-methyl-4-chlorophenoxy)-5-(2,6-dimethylphenylcarbonylamino)pyridine]",< 15
4,"Cc1cc(Cl)ccc1Oc1ccc(NC(=O)c2c(Cl)cccc2Cl)cn1 [2-(2-methyl-4-chlorophenoxy)-5-(2,6-dichlorophenylcarbonylamino)pyridine]",< 15
5,Cc1cc(F)ccc1Oc1ccc(NC(=O)c2ccccc2F)cn1 [2-(2-methyl-4-fluorophenoxy)-5-(2-fluorophenylcarbonylamino)pyridine],< 15
6,"Cc1cc(Cl)ccc1Oc1ccc(NC(=O)c2c(C)noc2C)cn1 [2-(2-methyl-4-chlorophenoxy)-5-((3,5-dimethyl-4-isoxazolyl)carbonylamino)pyridine]",< 15
7,"Cc1ccc(Oc2ccc(NC(=O)c3c(C)cccc3C)cn2)c(C)c1 [2-(2,4-dimethylphenoxy)-5-(2,6-dimethylphenylcarbonylamino)pyridine]",< 15
8,Cc1ccccc1Nc1ccc(NC(=O)c2ccccc2C)cn1 [2-(2-methylphenylamino)-5-(2-methylphenylcarbonylamino)pyridine],< 15
9,"Cc1cccc(C)c1C(=O)Nc1ccc(OC2CCCCC2)nc1 [2-cyclohexyloxy-5-(2,6-dimethylphenylcarbonylamino) pyridine]",< 15
10,Cc1cc(F)ccc1Oc1ccc(NC(=O)c2ccccc2C)cn1 [2-(2-methyl-4-fluorophenoxy)-5-(2-methylphenylcarbonylamino)pyridine],< 15
11,"CC1CCCCC1Nc1ccc(NC(=O)c2c(Cl)cccc2Cl)cn1 (centres unmarked) [2-(2-methylcyclohexylamino)-5-(2,6-dichlorophenylcarbonylamino)pyridine]",< 15
12,"O=C(Nc1ccc(OC2CCCCC2)nc1)c1c(Cl)cccc1Cl [2-cyclohexyloxy-5-(2,6-dichlorophenylcarbonylamino) pyridine]",< 15
13,"O=C(Nc1ccc(NC2CCCCC2)nc1)c1c(Cl)cccc1Cl [2-cyclohexylamino-5-(2,6-dichlorophenylcarbonylamino) pyridine]",< 15
14,"Cc1ncccc1Oc1ccc(NC(=O)c2c(Cl)cccc2Cl)cn1 [2-(2-methyl-3-pyridyloxy)-5-(2,6-dichlorophenylcarbonylamino)pyridine]",< 15
15,"Cc1ccc(Oc2ccc(NC(=O)c3ccccc3C)cn2)c(C)c1 [2-(2,4-dimethylphenoxy)-5-(2-methylphenylcarbonylamino) pyridine]",< 15
16,Cc1ccccc1C(=O)Nc1ccc(NC2CCCCC2C)nc1 (centres unmarked) [2-(2-methylcyclohexylamino)-5-(2-methylphenylcarbonylamino)pyridine],< 15
17,Cc1cc(Cl)ccc1Oc1ccc(NC(=O)c2ccccc2Cl)cn1 [2-(2-methyl-4-chlorophenoxy)-5-(2-chlorophenylcarbonylamino)pyridine],< 15
18,Cc1ccccc1NC(=O)c1ccc(Nc2ccc(Cl)cc2C)nc1 [2-(2-methyl-4-chlorophenylamino)-5-(2-methylphenylaminocarbonyl)pyridine],< 15
19,Cc1cc(Cl)ccc1Nc1ccc(NC(=O)c2ccccc2C)cn1 [2-(2-methyl-4-chlorophenylamino)-5-(2-methylphenylcarbonylamino)pyridine],< 15
20,"Cc1cccc(C)c1C(=O)Nc1ccc(NC2CCCCC2)nc1 [2-cyclohexylamino-5-(2,6-dimethylphenylcarbonylamino) pyridine]",< 15
21,O=C(Nc1ccc(OC2CCCCC2)nc1)c1ccccc1Cl [2-cyclohexyloxy-5-(2-chlorophenylcarbonylamino)pyridine],< 15
22,"Cc1ccccc1Nc1ccc(NC(=O)c2c(C)cccc2C)cn1 [2-(2-methylphenylamino)-5-(2,6-dimethylphenylcarbonylamino)pyridine]",< 15
23,"Cc1cc(F)ccc1Oc1ccc(NC(=O)c2c(Cl)cccc2Cl)cn1 [2-(2-methyl-4-fluorophenoxy)-5-(2,6-dichlorophenylcarbonylamino)pyridine]",< 15
24,Cc1ccccc1C(=O)Nc1ccc(OC2CCCCC2)nc1 [2-cyclohexyloxy-5-(2-methylphenylcarbonylamino)pyridine],< 15
25,"Cc1cccc(C)c1C(=O)Nc1ccc(Oc2ccc(Cl)cc2)nc1 [2-(4-chlorophenoxy)-5-(2,6-dimethylphenylcarbonylamino) pyridine]",< 15

# Tested on: Cyclooxygenase enzyme (COX-1 and COX-2)
# Test: Cyclooxygenase Enzyme Activity Assay (isoform not stated for the result)
# Assay type: cell-based, human
# Conditions: COX-1 (THP-1) / COX-2 (HOSC) cell assays, PGE2 ELISA
# Protocol: Cyclooxygenase Enzyme Activity Assay
# The human monocytic leukemia cell line, THP-1, differentiated by exposure to phorbol esters expresses only COX-1; the human osteosarcoma cell line 143B expresses predominantly COX-2. THP-1 cells are routinely cultured in RPMI complete media supplemented with 10% FBS and human osteosarcoma cells (HOSC) are cultured in minimal essential media supplemented with 10% fetal bovine serum (MEM-10%FBS); all cell incubations are at 37° C. in a humidified environment containing 5% CO2.
# In preparation for the COX-1 assay, THP-1 cells are grown to confluency, split 1:3 into RPMI containing 2% FBS and […] phorbol 12-myristate 13-acetate (TPA), and incubated for 48 hours on a shaker to prevent attachment. […] Arachidonic acid is added to a final concentration of […], the cells incubated for 20 minutes at 37° C., and enzyme activity determined as described below. […]
# After incubation with arachidonic acid, the reactions are stopped by the addition of 1 N HCl, followed by neutralization with 1 N NaOH and centrifugation to pellet cell debris. Cyclooxygenase enzyme activity in both HOSC and THP-1 cell supernatants is determined by measuring the concentration of PGE2 using a commercially available ELISA (Neogen #404110). […]
row,SMILES,IC50 [µM]
1,"Cc1ccc(Nc2ccc(NC(=O)c3c(Cl)cccc3Cl)cn2)c(C)c1 [2-(2,4-dimethylphenylamino)-5-(2,6-dichlorophenylcarbonylamino)pyridine]",≤ 10
